Values of other authors in US20240374634A1, “NUTRACEUTICAL OPHTHALMIC COMPOSITION FOR THE TREATMENT OF RETINAL PATHOLOGIES HAVING A NEOVASCULAR COMPONENT” (Laboratoires THEA, priority 2018, published 2024).

Conditions: 300 patients over three years, after a significant increase in DHA in cells

SMILES: CC/C=C\C/C=C\C/C=C\C/C=C\C/C=C\C/C=C\CCC(=O)O [DHA, Docosahexaenoic acid (DHA)]
- reduction in the risks of developing neovascular AMD: 68%
